Reference: paper PMC6401531 (ChemistryOpen, 2019)
pEC50: −log10 of the molar value. “And” between values parts separate entries of the source, which are not always exact repeats. Identical values can stand only once. Like-named read-outs stand apart in the source and are kept apart here.

Key:
hH3R = hH3R (Homo sapiens, UniProt Q9Y5N1); test: [35S]GTPγS binding assay, Sf9 membranes; assay type: biochemical
hH4R = hH4R (Homo sapiens, UniProt Q9H3N8); test: [35S]GTPγS binding assay, Sf9 membranes; assay type: biochemical
gpH2R (atrium) [1] = target: T1, gpH2R (atrium) (Cavia porcellus, UniProt P47747); test: Organ bath study on isolated guinea pig right atrium; settings: for Emax gpH2R: maximal response relative to maximal increase in heart rate induced by histamine (Emax=1.00)
T1 sequence (P47747 whole entry): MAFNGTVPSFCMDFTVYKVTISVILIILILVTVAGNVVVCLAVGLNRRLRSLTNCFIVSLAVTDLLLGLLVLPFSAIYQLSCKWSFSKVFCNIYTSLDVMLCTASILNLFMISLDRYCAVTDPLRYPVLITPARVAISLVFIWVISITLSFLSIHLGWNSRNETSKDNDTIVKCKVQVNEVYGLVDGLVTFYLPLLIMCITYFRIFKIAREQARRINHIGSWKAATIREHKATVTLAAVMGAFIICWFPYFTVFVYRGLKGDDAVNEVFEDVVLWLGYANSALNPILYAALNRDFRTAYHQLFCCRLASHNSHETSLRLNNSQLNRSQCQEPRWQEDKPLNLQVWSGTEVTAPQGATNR

hH2R = hH2R (Homo sapiens, UniProt P25021+P63092); test: [35S]GTPγS binding assay, Sf9 membranes; assay type: biochemical
gpH1R (ileum) = gpH1R (ileum) (Cavia porcellus, UniProt P31389); test: Organ bath study on isolated guinea pig ileum
Sequence of gpH1R (ileum) (P31389 whole entry): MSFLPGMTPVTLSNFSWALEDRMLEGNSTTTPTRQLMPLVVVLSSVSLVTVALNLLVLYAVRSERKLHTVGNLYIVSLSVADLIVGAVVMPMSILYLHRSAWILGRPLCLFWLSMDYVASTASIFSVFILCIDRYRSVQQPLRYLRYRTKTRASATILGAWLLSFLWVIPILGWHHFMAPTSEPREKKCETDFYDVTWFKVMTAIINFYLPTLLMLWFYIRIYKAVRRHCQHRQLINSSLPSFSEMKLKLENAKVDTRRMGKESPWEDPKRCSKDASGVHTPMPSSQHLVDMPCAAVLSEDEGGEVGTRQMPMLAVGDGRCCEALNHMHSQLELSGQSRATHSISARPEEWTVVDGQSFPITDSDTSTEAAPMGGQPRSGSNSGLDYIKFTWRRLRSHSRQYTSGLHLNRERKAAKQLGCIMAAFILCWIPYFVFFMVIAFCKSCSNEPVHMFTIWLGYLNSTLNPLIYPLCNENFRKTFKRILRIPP

gpH2R (atrium) [2] = target: T1, gpH2R (atrium); settings: guinea-pig right atrium, cited from earlier work
[3] = [35S]GTPγS binding, maximal response relative to histamine (Emax=1.00)

Sequence of hH3R (Q9Y5N1 whole entry): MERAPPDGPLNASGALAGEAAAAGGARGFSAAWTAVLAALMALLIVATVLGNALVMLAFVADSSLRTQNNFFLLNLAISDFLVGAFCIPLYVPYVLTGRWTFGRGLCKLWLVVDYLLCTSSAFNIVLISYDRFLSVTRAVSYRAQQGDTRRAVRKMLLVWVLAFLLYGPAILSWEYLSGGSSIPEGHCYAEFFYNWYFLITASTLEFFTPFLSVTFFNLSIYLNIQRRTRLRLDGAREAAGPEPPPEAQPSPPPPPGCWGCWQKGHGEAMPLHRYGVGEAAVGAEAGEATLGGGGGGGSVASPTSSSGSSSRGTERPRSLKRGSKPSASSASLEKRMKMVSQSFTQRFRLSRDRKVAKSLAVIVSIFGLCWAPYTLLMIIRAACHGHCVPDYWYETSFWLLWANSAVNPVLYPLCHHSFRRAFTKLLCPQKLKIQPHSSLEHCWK

Row | pEC50 (gpH2R (atrium) [1]) | Kb (gpH1R (ileum)) [nM] | SMILES | Emax gpH2R (gpH2R (atrium) [1]) | further results
1 |  |  | NCCc1c[nH]cn1 [compound 1, histamine, reference compound] | 1.00 | Emax hH3R (hH3R; [3]): 1.00; Emax hH4R (hH4R; [3]): 1.00; Emax hH2R (hH2R; [3]): 1.00
2 | 5.33 | 16600 | N=C(NCCCN)NCCCc1c[nH]cn1 [compound 115, 1‐(3‐Aminopropyl)‐3‐[3‐(1H‐imidazol‐4‐yl)propyl]guanidine] | 0.88±0.05 | 
3 | 5.13 | 3800 | N=C(NCCCCN)NCCCc1c[nH]cn1 [compound 116] | 0.68±0.02 | 
4 | 6.42 | 6310 | N=C(NCCCCCCN)NCCCc1c[nH]cn1 [compound 117] | 0.79±0.01 | 
5 | 6.51 | 1290 | N=C(NCCCCCCCCN)NCCCc1c[nH]cn1 [compound 118] | 0.75±0.10 | 
6 | 6.41 | 676 | N=C(NCCCCCCCCCCN)NCCCc1c[nH]cn1 [compound 119] | 0.78±0.01 | 
7 | 6.86 | 112 | N=C(NCCCCCCCCCCCCN)NCCCc1c[nH]cn1 [compound 120] | 1.00 and 1.00±0.06 | Emax hH3R (hH3R): 0; Kb (hH3R): 191 nM; Emax hH4R (hH4R): 0; Kb (hH4R): 372000 nM; Emax hH2R (hH2R): 0.66±0.01
8 | 6.49 | 70.8 | Cc1nc(N)sc1CCCNC(=N)NCCCCCCCCCCCCN [compound 121] | 0.71±0.03 | Emax hH3R (hH3R): −0.69±0.03; Emax hH4R (hH4R): 0; Kb (hH4R): 178000 nM; Emax hH2R (hH2R): 0.22 and 0.22±0.01
9 | 6.63 | 9.33 | N=C(NCCCCCCCCCCCCN)NCCCc1cnc(N)s1 [compound 122] | 0.90±0.05 | 
10 | 7.30 | 2630 | N=C(N)NCCCCNC(=N)NCCCc1c[nH]cn1 [compound 123] | 1.03 and 1.03±0.03 | 
11 | 7.67 | 933 | N=C(N)NCCCCCCNC(=N)NCCCc1c[nH]cn1 [compound 124] | 0.94±0.02 | 
12 | 7.69 | 1620 | N=C(N)NCCCCCCCCNC(=N)NCCCc1c[nH]cn1 [compound 125] | 0.83 and 0.83±0.07 | 
13 | 7.56 | 251 | N=C(N)NCCCCCCCCCCNC(=N)NCCCc1c[nH]cn1 [compound 126] | 0.80±0.02 | 
14 | 7.25 | 60.3 | N=C(N)NCCCCCCCCCCCCNC(=N)NCCCc1c[nH]cn1 [compound 127] | 0.77±0.07 | Emax hH3R (hH3R): 0; Kb (hH3R): 66.1 nM; Emax hH4R (hH4R): 0; Kb (hH4R): 417000 nM; Emax hH2R (hH2R): 0.45±0.03
15 | 6.87 | 214 | Cc1nc(N)sc1CCCNC(=N)NCCCCCCCCNC(=N)N [compound 128] | 0.72±0.02 | 
16 | 7.41 | 50.1 | N=C(N)NCCCCCCCCNC(=N)NCCCc1cnc(N)s1 [compound 129] | 1.00±0.01 | 
17 | 7.02 | 174 | Cc1nc(N)sc1CCCNC(=N)NCCCCCCCCCCCCNC(=N)N [compound 130] | 0.90±0.04 | Emax hH3R (hH3R): −1.21±0.10; Emax hH2R (hH2R): 0.22 and 0.22±0.01
18 | 6.93 | 8.71 | N=C(N)NCCCCCCCCCCCCNC(=N)NCCCc1cnc(N)s1 [compound 131] | 0.85±0.05 | 
19 | 5.61 | 9120 | N=C(NCCCNC(N)=O)NCCCc1c[nH]cn1 [compound 132] | 0.89±0.03 | 
20 | 6.54 | 6030 | N=C(NCCCCNC(N)=O)NCCCc1c[nH]cn1 [compound 133] | 1.03±0.03 | 
21 | 6.17 | 7410 | N=C(NCCCCCCNC(N)=O)NCCCc1c[nH]cn1 [compound 134] | 0.96±0.03 | 
22 | 6.74 | 1410 | N=C(NCCCCCCCCNC(N)=O)NCCCc1c[nH]cn1 [compound 135] | 0.94±0.05 | 
23 | 6.53 | 1000 | N=C(NCCCCCCCCCCNC(N)=O)NCCCc1c[nH]cn1 [compound 136] | 0.96±0.01 | Emax hH3R (hH3R): −1.20±0.15; Emax hH2R (hH2R): 0.45 and 0.45±0.03
24 | 4.96 |  | NC(=S)NCCCc1c[nH]cn1 [compound 142] | 0.27±0.02 | 
25 | 5.13 | 3890 | CSC(=N)NCCCc1c[nH]cn1 [compound 143, N‐[3‐(1H‐Imidazol‐4‐yl)propyl]‐S‐methylisothiourea] | 0.45 and 0.45±0.05 | rel. potency (gpH2R (atrium) [2]; relative to histamine): 0.1; maximum response (gpH2R (atrium) [2]): 0.23
26 | 3.57 | > 31600 | NC(=O)NCCCc1c[nH]cn1 [compound 145, 1‐[3‐(1H‐Imidazol‐4‐yl)propyl]urea] | 0.58±0.02 | 

Row | SMILES | pEC50 (gpH2R (atrium) [1]) | Kb (gpH1R (ileum)) [nM] | Emax gpH2R (gpH2R (atrium) [1]) | further results
27 | O=C(NC(=S)NCCCc1c[nH]cn1)c1ccccc1 [compound 141, N‐{[3‐(1H‐Imidazol‐4‐yl)propyl]thiocarbamoyl}benzamide] | 4.73 |  | 0.43±0.01 | 
28 | O=C(NCCCc1c[nH]cn1)NC(=O)c1ccccc1 [compound 144] | 4.62 | 9550 | 0.15±0.03 | 
